Data published in patent US20230391778A1, “INDOLIN-2-ONE OR PYRROLO -PYRIDIN -2 -ONE DERIVATIVES” (Hoffmann-La Roche Inc., priority 2014, published 2023).

How the values were obtained:
mouse ENT-1 transporter = target: T1, mouse ENT-1 transporter (Mus musculus, UniProt Q9JIM1); experiment: Measure of adenosine transport activity (ENT1 adenosine uptake inhibition); type: cell-based; conditions: stable cells expressing mouse ENT-1, [2,8-3H]-adenosine 6 nM, 20 min
T1 construct: expressed in transfected cells
T1 sequence (Q9JIM1 1-460): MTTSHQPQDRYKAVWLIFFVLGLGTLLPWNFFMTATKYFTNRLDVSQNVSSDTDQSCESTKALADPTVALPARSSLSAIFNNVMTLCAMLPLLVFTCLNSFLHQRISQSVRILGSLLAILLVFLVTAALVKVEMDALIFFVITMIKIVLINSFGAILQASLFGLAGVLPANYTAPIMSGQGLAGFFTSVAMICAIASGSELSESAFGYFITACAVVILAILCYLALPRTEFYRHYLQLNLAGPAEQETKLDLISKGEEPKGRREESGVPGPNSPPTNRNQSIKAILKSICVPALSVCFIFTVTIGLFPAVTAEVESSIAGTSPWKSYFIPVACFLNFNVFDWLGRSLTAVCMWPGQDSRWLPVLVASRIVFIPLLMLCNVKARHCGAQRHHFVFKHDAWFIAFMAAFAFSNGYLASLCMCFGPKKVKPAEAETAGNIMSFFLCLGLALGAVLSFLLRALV
Outline: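 Stable mouse ENT-1 cells, 60,000/well, washed into pH 7.4 Hepes-Tris uptake buffer and incubated at RT with compound (1% DMSO final) for 20 min with shaking. Non-specific uptake defined with 10 μM NBTI; cell-associated radioactivity counted by scintillation after ice-cold washes.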

mice = experiment: SmartCube behavioral signature similarity analysis; type: in vivo, mouse; parameters: key to discrimination rate vs Clozapine (similarity analysis) / discrimination rate vs Olanzapine (similarity analysis) / discrimination rate vs Risperidone (similarity analysis): fraction; 0.5 = zero distinguishability between the two drugs; conditions: for discrimination rate vs Clozapine (similarity analysis) / discrimination rate vs Olanzapine (similarity analysis) / discrimination rate vs Risperidone (similarity analysis): 5 mg/kg i.p., SmartCube, rate of 0.70 or lower = similar
Source text: In addition to the reversal of L-687,414 induced hyperlocomotion experiment as described above, some compounds of the present invention have been tested in SmartCube®, an automated system in which the behaviors of compound-treated mice in response to multiple challenges are captured by digital video and analyzed with computer algorithms (Roberds et al., Frontiers in Neuroscience, 2011, Vol. 5, Art. 103, 1-4; Vadim Alexandrov, Dani Brunner, Taleen Hanania, Emer Leahy Eur. J. Pharmacol. 2015, 750, 82-99). In this way, the neuro-pharmacological effects of a test compound can be predicted by similarity to major classes of compounds, such as antipsychotics, anxiolytics and antidepressants.
As mentioned above, some compounds have been tested in SmartCube©, an analytical system developed by PsychoGenics Inc.
SmartCube® was used to compare the behavioral signature of a test compound to a database of behavioral signatures obtained from a large set of clinically approved reference drugs, grouped per indications. In this way, the neuro-pharmacological effects of a test compound can be predicted by similarity to major classes of compounds, such as antipsychotics, anxiolytics and antidepressants. This approach is ideally suited to screen collections of existing drugs or drug candidates with previously unknown neuropharmacology, which could expedite the development of new and unexpected treatments for psychiatric disorders.
Some compounds of the present invention were injected i.p. at different doses 15 minutes before the test. At least 8 mice were used in each treatment group. Digital videos of the subjects were processed with computer vision algorithms to extract over 2000 dependent measures including frequency and duration of many different behavioral states. The results of the classifications are presented as bar charts for each compound and dose (mg/kg), the Y-axis indicates the relative probability that the test compound will show efficacy in the specific CNS indication.
For comparison, the behavioral signatures of the atypical antipsychotics clozapine, olanzapine and risperidone are shown in FIG. 2. Compounds of the present invention show similar signatures to those of atypical antipsychotics. An independent analysis was performed on the unclassified data to determine the similarity of the example compounds to active doses of known atypical antipsychotics. For this analysis, we use discrimination rate as the measure of separability between the two drugs, i.e. one drug's “distinguishability” from another. A rate equal to 50% (or 0.5) corresponds to zero distinguishability. […] In most cases, the example compounds show a similarity to risperidone, clozapine and olanzapine with a discrimination rate of <0.70.

[1] = tested on: L-687,414-induced hyperlocomotion; experiment: L-687,414-induced hyperlocomotion; type: in vivo, mouse; conditions: Mus musculus; Dose ip 30 mg/kg, mice, 50 mg/kg s.c. L-687,414
Experimental: The described compounds of formula I reduce L-687,414-induced hyperlocomotion. This was assessed by using a computerized Digiscan 16 Animal Activity Monitoring System (Omnitech Electronics, Columbus, Ohio) to quantify locomotor activity. Animals were kept under a 12 h light/dark cycle and experiments were performed during the light period. Each activity monitoring chamber consisted of a Plexiglas box (41×41×28 cm; W×L×H) with sawdust bedding on the floor surrounded by invisible horizontal and vertical infrared sensor beams. The test boxes were divided by a Plexiglas cross providing each mouse with 20×20 cm of moving space. Cages were connected to a Digiscan Analyzer linked to a computer that constantly collected the beam status information. Records of photocell beam interruptions for individual animals were taken every 5 min over the duration of the experimental session and the sum of the first 6 periods was used as the final parameter. At least 8 mice were used in each treatment group. Compounds were administered either p.o. 15 min before a s.c. injection of 50 mg/kg of L-687,414, or i.p. at the same time as a s.c. injection of 50 mg/kg of L-687,414. Mice were then transferred from their home cage to the recording chambers for a 15-min habituation phase allowing free exploration of the new environment. Horizontal activity was then recorded for a 30-min time period. The % inhibition of L-687,414-induced hyperlocomotion was calculated according to the equation:
((Veh+L-687,414 horizontal activity−drug+L-687,414 horizontal activity)/Veh+L-687,414 horizontal activity)×100
ID50 values, defined as doses of each compound producing 50% inhibition of L-687,414-induced hyperlocomotion, were calculated by linear regression analysis of a dose-response data using an Excel-based computer-fitting program.
As data was not presupposed to be normally distributed, groups treated with test compounds were statistically compared with the control (vehicle-treated) group using one-tailed Mann Whitney U tests. In statistics, the Mann-Whitney U test (also called the Mann-Whitney-Wilcoxon (MWW) or Wilcoxon rank-sum test) is a non-parametric statistical hypothesis test for assessing whether one of two samples of independent observations tends to have larger values than the other. It is one of the most well-known non-parametric significance tests. […] P values given in table 1 are one-tailed since only decreases in locomotion were expected and tested for (Mann, H. B., Whitney, D. R. (1947), “On a Test of Whether one of Two Random Variables is Stochastically Larger than the Other”, Annals of Mathematical Statistics, 18 (1), 50-60).

## Cc1ccc(N2C(=O)C(C)(C)c3ccc(-c4cnc(C)nc4)cc32)nn1 [Example 48, 3,3-Dimethyl-1-(6-methylpyridazin-3-yl)-6-(2-methylpyrimidin-5-yl)indolin-2-one]
Mouse ENT-1 transporter
  IC50: 55 nM
mice
  SmartCube similarity to major drug classes: similarity to atypical antipsychotics
  discrimination rate vs Clozapine (similarity analysis): 0.58
  discrimination rate vs Olanzapine (similarity analysis): 0.61
  discrimination rate vs Risperidone (similarity analysis): 0.67

## Cc1cc(N2C(=O)C(C)(C)c3ccc(-c4cnc(C)nc4)cc32)c(F)cn1 [Example 25, 1-(5-Fluoro-2-methylpyridin-4-yl)-3,3-dimethyl-6-(2-methylpyrimidin-5-yl)indolin-2-one]
mice
  SmartCube similarity to major drug classes: similarity to atypical antipsychotics
  discrimination rate vs Clozapine (similarity analysis): 0.61
  discrimination rate vs Olanzapine (similarity analysis): 0.62
  discrimination rate vs Risperidone (similarity analysis): 0.74

## Cc1ncc(-c2ccc3c(c2)N(c2cnc(C)nc2)C(=O)C3(C)C)cn1 [Example 9, 3,3-Dimethyl-1,6-bis(2-methylpyrimidin-5-yl)indolin-2-one]
Mouse ENT-1 transporter
  IC50: 174 nM
[1]
  inhibition in vivo at 30 mg/kg: 93.2%
mice
  SmartCube similarity to major drug classes: similarity to atypical antipsychotics
  discrimination rate vs Clozapine (similarity analysis): 0.65
  discrimination rate vs Olanzapine (similarity analysis): 0.66
  discrimination rate vs Risperidone (similarity analysis): 0.69

## Cc1ncc(-c2ccc3c(c2)N(c2cn(C)cn2)C(=O)C3(C)C)cn1 [Example 2, 3,3-Dimethyl-1-(1-methyl-1H-imidazol-4-yl)-6-(2-methylpyrimidin-5-yl)indolin-2-one]
Mouse ENT-1 transporter
  IC50: 613 nM
[1]
  inhibition in vivo at 30 mg/kg: 95.7%

## Cc1ncc(-c2ccc3c(c2)N(c2ccncc2)C(=O)C3(C)C)cn1 [Example 1, 3,3-Dimethyl-6-(2-methylpyrimidin-5-yl)-1-(pyridin-4-yl)indolin-2-one]
Mouse ENT-1 transporter
  IC50: 431 nM
[1]
  inhibition in vivo at 30 mg/kg: 95.4%

## Cc1ncc(-c2ccc3c(c2)N(c2ccc(C)c(C)n2)C(=O)C3(C)C)cn1 [Example 70, 1-(5,6-dimethylpyridin-2-yl)-3,3-dimethyl-6-(2-methylpyrimidin-5-yl)indolin-2-one]
Mouse ENT-1 transporter
  IC50: 340 nM
[1]
  inhibition in vivo at 30 mg/kg: 93.5%

## Cc1cnc(N2C(=O)C(C)(C)c3ccc(-c4cnc(C)nc4)cc32)nc1 [Example 53, 3,3-Dimethyl-1-(5-methylpyrimidin-2-yl)-6-(2-methylpyrimidin-5-yl)indolin-2-one]
Mouse ENT-1 transporter
  IC50: 1520 nM
mice
  SmartCube similarity to major drug classes: similarity to atypical antipsychotics
  discrimination rate vs Clozapine (similarity analysis): 0.59
  discrimination rate vs Olanzapine (similarity analysis): 0.61
  discrimination rate vs Risperidone (similarity analysis): 0.62

## Cc1ncc(-c2ccc3c(c2)N(c2ccnnc2)C(=O)C3(C)C)cn1 [Example 120, 3,3-dimethyl-6-(2-methylpyrimidin-5-yl)-1-(pyridazin-4-yl)indolin-2-one]
Mouse ENT-1 transporter
  IC50: 3600 nM
[1]
  inhibition in vivo at 30 mg/kg: 90.8%

## Cc1ncc(-c2ccc3c(c2)N(c2cncc(C4CC4)n2)C(=O)C3(C)C)cn1 [Example 97, 1-(6-cyclopropylpyrazin-2-yl)-3,3-dimethyl-6-(2-methylpyrimidin-5-yl)indolin-2-one]
Mouse ENT-1 transporter
  IC50: 102 nM
[1]
  inhibition in vivo at 30 mg/kg: 78.5%
